Experimental data taken from ChEMBL document CHEMBL1201862, “PubChem BioAssay data set” (2004).
The source made the active and inactive calls.

Tests used:
[1] = target: Eukaryotic translation initiation factor 4H (Homo sapiens, UniProt Q15056); assay: inhibitors of translation initiation factor eIF4H – SAR follow-up (AID 435011); type: functional
[2] = target: Polyadenylate-binding protein 1 (Homo sapiens, UniProt P11940); assay: PABP inhibition in translation initiation, SAR follow-up (AID 435018); type: functional
[3] = target: Cystic fibrosis transmembrane conductance regulator/Golgi-associated PDZ and coiled-coil motif-containing protein (Homo sapiens, UniProt P13569+Q9HD26); assay: potency against CAL PDZ-peptide interaction – biochemical, fluorescence polarization, Cerulean-tagged CAL PDZ, cherry-picks, dose response (AID 504773)
HeLa = assay: viability loss in HeLa cells – cell-based, 24 h, cherry-picked samples, cytotoxicity control, dose response (AID 504726); type: functional; conditions: Homo sapiens;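 note: potency for cytotoxicity as loss of luminescence signal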
[4] = target: Intestinal-type alkaline phosphatase (Homo sapiens, UniProt P09923); assay: Dose Response confirmation of uHTS hits from a small molecule inhibitors of human intestinal alkaline phosphatase via a luminescent assay. [Related pubchem assays (depositor defined):AID2544, AID2574]; type: functional
ORF 73 = ORF 73 (Human herpesvirus 8, UniProt O40947); assay: KSHV LANA DNA-binding disruption – biochemical, fluorescence polarization, cherry-picked samples, dose response (AID 504725); set-up: species or system Human gammaherpesvirus 8;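 note: fluorescence polarization of a labeled DNA duplex reporting LANA DNA binding; potency is for inhibitors that block LANA binding to the DNA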
Insulin-degrading enzyme [5] = target: T1, Insulin-degrading enzyme (Homo sapiens, UniProt P14735); assay: recombinant IDE activation, cell-free – biochemical, fluorescence polarization, counter-screen for IDE activator project, dose response (AID 588681)
T1 sequence (P14735 whole entry): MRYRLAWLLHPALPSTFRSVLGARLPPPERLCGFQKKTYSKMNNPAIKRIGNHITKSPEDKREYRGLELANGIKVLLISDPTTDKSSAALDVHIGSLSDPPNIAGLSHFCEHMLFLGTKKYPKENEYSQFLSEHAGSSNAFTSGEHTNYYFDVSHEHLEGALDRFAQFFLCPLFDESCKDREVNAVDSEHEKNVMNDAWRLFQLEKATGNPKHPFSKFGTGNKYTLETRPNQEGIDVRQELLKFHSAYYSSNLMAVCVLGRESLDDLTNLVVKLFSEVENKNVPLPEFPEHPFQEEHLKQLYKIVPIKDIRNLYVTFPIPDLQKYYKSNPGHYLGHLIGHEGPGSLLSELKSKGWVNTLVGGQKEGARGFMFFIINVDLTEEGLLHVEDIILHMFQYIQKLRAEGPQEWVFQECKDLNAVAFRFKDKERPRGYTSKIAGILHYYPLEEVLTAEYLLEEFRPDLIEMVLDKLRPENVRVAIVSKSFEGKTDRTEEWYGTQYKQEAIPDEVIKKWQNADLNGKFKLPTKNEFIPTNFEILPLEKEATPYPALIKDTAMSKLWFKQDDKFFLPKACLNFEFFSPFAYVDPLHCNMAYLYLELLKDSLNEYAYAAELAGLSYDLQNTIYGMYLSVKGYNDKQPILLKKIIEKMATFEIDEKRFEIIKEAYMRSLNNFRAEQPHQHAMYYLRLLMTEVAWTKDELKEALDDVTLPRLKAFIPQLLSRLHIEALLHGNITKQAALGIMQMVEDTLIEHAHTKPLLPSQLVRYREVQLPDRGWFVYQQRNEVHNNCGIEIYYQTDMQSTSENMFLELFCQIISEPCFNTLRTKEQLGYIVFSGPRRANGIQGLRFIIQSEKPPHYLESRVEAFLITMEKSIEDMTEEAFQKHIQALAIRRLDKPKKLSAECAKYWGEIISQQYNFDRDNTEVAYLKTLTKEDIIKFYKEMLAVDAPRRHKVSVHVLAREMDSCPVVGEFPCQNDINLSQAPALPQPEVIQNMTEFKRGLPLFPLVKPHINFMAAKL

Insulin-degrading enzyme [6] = target: T1, Insulin-degrading enzyme; assay: cellular IDE activation of Abeta substrate cleavage – fluorescence polarization, HEK cells, dose response (AID 588439); type: functional, cell-based
HEK293 [7] = assay: membrane integrity loss in HEK cells – cell-based, fluorescence, cytotoxicity control for IDE activator project, dose response (AID 588440); type: functional; conditions: Homo sapiens;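 note: cytotoxicity by LDH release measuring loss of membrane integrity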
HEK293 [8] = assay: optical interference in Abeta FP readout, dose response, artefact control for IDE activator project, biochemical, fluorescence polarization (AID 588442); type: functional, cell-based; conditions: Homo sapiens
Paired box protein Pax-8 = Paired box protein Pax-8 (Homo sapiens, UniProt Q06710); assay: PAX8 transcriptional activity inhibition in RMG-I – RMG-I cells, luciferase, cherry-pick, dose response (AID 687027); type: functional, cell-based;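 note: luciferase reporter driven by Pax8 target thyroperoxidase promoter measured by SteadyGlo luminescence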
[9] = viability loss in THP-1 monocytes – THP-1 cells, cytotoxicity control for Vif-APOBEC3G degradation inhibitor project, dose response (AID 1117359); type: functional; conditions: THP-1
[10] = target: Glutathione-S-transferase (Schistosoma japonicum, UniProt Q26513); assay: GST-antibody interaction or FRET quenching – biochemical, TR-FRET, artefact control for Vif-APOBEC3G degradation inhibitor project, dose response (AID 1117362); type: functional
[11] = target: C-C chemokine receptor type 6 (Homo sapiens, UniProt P51684); assay: antagonism of CCR6 beta-arrestin recruitment – cell-based, luminescent beta-arrestin readout, dose response (AID 504728); type: functional
Beta-galactosidase = Beta-galactosidase (Escherichia coli, UniProt Q8VNN2); assay: detection-enzyme interference by beta-gal modulators – biochemical, E. coli enzyme, set 3, artefact control for CCR6 antagonist project, dose response (AID 504712); type: functional
[12] = target: T2, Apoptotic protease-activating factor 1 (Homo sapiens, UniProt O14727); type: functional
T2 sequence (O14727 whole entry): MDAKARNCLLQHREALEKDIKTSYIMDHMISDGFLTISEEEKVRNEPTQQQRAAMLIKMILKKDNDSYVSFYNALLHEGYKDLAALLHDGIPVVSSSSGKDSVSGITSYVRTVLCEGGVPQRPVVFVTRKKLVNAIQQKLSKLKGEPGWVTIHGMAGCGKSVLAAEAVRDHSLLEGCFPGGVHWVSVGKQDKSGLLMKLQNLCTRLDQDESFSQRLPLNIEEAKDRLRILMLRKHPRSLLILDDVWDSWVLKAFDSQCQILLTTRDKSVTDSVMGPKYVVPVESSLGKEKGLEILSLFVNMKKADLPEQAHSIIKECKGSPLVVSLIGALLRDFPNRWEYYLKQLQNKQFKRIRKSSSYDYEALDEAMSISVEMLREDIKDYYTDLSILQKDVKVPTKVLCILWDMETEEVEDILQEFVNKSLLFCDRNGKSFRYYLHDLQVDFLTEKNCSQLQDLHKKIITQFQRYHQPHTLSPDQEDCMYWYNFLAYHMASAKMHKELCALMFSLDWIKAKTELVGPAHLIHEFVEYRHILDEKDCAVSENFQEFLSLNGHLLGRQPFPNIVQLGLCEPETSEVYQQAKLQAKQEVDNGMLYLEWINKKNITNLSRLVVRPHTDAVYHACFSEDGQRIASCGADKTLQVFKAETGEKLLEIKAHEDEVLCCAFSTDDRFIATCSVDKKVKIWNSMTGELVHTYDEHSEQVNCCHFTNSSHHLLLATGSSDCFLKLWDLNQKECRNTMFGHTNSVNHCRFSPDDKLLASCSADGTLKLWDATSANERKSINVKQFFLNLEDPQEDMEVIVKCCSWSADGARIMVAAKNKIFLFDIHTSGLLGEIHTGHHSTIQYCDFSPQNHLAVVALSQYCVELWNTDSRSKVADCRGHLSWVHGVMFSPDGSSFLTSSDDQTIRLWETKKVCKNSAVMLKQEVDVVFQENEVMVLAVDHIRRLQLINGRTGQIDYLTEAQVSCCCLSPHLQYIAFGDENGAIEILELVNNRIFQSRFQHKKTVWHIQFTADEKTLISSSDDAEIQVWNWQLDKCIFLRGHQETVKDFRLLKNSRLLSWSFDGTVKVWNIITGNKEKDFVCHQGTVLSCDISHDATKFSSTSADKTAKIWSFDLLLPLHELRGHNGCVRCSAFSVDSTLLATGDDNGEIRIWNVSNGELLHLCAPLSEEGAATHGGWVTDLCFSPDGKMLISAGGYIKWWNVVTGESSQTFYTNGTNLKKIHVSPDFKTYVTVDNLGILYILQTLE

[13] = target: 1-phosphatidylinositol 4,5-bisphosphate phosphodiesterase gamma-1 (Homo sapiens, UniProt P19174); assay: Counterscreen for inhibitors of phospholipase C isozymes (PLC-B3): Fluorescence-based biochemical high throughput dose response assay to identify inhibitors of phospholipase C isozymes (PLC-gamma1).
[14] = target: 1-phosphatidylinositol 4,5-bisphosphate phosphodiesterase beta-3 (Homo sapiens, UniProt Q01970); assay: Fluorescence-based biochemical high throughput dose response assay to identify inhibitors of phospholipase C isozymes (PLC-B3).
[15] = target: T3, Tyrosine-protein phosphatase non-receptor type 7 (Homo sapiens, UniProt P35236); type: functional
T3 sequence (P35236 whole entry): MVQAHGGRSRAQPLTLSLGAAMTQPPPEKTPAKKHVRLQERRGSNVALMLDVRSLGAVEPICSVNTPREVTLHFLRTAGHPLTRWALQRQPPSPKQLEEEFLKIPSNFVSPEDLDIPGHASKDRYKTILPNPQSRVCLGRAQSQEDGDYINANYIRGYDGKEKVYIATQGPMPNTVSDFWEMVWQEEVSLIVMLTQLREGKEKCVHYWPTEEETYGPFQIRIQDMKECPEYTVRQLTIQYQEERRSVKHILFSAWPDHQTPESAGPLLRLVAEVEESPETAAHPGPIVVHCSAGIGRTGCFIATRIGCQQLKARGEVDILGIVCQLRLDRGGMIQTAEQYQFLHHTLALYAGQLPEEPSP

[16] = target: Glyceraldehyde-3-phosphate dehydrogenase (Homo sapiens, UniProt P04406)
[17] = target: T4, Dual specificity protein phosphatase 6 (Rattus norvegicus, UniProt Q64346)
T4 sequence (Q64346 whole entry): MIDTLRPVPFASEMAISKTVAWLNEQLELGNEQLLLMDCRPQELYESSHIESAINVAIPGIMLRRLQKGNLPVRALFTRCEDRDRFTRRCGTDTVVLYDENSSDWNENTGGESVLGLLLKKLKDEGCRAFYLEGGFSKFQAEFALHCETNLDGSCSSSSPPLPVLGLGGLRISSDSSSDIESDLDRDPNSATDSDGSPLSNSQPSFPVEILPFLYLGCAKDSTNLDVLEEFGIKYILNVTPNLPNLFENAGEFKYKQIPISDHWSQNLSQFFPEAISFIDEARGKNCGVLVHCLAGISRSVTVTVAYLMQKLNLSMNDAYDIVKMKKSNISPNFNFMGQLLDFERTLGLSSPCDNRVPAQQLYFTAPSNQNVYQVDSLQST

[18] = target: T5, Dual specificity protein phosphatase 3 (Homo sapiens, UniProt P51452); assay: SAR VHR1 Fluorescent Assay for In Vitro dose response studies. [Related pubchem assays (depositor defined):AID1654, AID1661, AID1878, AID1992, AID2004, AID2070, AID2085]; type: functional
[19] = target: T5, Dual specificity protein phosphatase 3; assay: MOA VHR1 Fluorescent secondary assay for identification of redox-state modulating compounds. [Related pubchem assays (depositor defined):AID1654, AID1661, AID1878, AID1957]
[20] = target: T3, Tyrosine-protein phosphatase non-receptor type 7; assay: redox-active compounds inhibiting HePTP phosphatase – biochemical, fluorescence, mechanism study (AID 2068); type: functional
[21] = target: T4, Dual specificity protein phosphatase 6; type: functional
[22] = target: Envelope glycoprotein gp160 (Human immunodeficiency virus 1, UniProt Q6QLK5); assay: cell-free HIV fusion peptide-binding blockers – biochemical, uHTS, fluorescence dequenching, […] (AID 1986)
[23] = M. tuberculosis H37Rv growth inhibitors, H37Rv strain (AID 1626); type: functional
[24] = Luminescence Cell-Based Dose Retest to Confirm Inhibitors of Cancer Stem Cells. [Related pubchem assays (depositor defined):AID2717, AID2721]; type: functional; conditions: Homo sapiens
INS1 = assay: INS-1E survival protection against cytokine death – cell-based, luminescence, retest, dose response (AID 449756); type: functional; conditions: Rattus norvegicus;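 note: cell death triggered by IL-1 beta plus TNF-alpha plus IFN-gamma mixture; protective hits raise ATP signal compared with cytokine alone wells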

T5 sequence (P51452 whole entry): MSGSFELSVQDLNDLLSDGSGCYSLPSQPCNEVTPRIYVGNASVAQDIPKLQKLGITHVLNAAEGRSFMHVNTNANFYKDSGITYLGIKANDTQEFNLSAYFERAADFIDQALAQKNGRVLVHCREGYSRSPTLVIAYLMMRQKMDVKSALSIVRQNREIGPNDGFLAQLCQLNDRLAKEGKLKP
Paired box protein Pax-8, sequence (Q06710 whole entry): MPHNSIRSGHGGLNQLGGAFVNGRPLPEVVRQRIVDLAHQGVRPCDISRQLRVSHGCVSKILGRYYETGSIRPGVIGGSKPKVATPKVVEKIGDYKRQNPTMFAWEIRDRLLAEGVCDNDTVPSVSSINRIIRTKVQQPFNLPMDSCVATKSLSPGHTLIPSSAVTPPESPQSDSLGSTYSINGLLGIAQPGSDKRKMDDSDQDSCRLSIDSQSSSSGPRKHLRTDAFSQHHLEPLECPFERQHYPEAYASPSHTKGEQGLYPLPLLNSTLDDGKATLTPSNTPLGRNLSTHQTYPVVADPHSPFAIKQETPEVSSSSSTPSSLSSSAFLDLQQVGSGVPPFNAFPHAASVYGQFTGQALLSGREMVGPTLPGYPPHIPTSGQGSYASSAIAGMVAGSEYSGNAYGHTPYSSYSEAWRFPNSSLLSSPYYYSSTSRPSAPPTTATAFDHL
Intestinal-type alkaline phosphatase, sequence (P09923 whole entry): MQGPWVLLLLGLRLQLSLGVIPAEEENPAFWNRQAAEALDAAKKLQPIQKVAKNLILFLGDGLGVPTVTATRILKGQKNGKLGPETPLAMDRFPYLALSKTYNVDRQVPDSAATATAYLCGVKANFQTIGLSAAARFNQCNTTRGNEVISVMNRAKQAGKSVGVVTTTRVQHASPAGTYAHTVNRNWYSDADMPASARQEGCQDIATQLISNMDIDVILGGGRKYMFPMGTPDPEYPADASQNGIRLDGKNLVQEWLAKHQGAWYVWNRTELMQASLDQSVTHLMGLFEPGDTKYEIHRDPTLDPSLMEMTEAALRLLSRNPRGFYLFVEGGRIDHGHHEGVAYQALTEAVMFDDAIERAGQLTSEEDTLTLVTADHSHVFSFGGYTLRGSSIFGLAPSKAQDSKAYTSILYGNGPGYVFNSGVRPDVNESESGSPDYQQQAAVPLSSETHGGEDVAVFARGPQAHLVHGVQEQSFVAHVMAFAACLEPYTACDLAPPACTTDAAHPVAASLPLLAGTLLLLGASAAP
1-phosphatidylinositol 4,5-bisphosphate phosphodiesterase gamma-1, sequence (P19174 whole entry): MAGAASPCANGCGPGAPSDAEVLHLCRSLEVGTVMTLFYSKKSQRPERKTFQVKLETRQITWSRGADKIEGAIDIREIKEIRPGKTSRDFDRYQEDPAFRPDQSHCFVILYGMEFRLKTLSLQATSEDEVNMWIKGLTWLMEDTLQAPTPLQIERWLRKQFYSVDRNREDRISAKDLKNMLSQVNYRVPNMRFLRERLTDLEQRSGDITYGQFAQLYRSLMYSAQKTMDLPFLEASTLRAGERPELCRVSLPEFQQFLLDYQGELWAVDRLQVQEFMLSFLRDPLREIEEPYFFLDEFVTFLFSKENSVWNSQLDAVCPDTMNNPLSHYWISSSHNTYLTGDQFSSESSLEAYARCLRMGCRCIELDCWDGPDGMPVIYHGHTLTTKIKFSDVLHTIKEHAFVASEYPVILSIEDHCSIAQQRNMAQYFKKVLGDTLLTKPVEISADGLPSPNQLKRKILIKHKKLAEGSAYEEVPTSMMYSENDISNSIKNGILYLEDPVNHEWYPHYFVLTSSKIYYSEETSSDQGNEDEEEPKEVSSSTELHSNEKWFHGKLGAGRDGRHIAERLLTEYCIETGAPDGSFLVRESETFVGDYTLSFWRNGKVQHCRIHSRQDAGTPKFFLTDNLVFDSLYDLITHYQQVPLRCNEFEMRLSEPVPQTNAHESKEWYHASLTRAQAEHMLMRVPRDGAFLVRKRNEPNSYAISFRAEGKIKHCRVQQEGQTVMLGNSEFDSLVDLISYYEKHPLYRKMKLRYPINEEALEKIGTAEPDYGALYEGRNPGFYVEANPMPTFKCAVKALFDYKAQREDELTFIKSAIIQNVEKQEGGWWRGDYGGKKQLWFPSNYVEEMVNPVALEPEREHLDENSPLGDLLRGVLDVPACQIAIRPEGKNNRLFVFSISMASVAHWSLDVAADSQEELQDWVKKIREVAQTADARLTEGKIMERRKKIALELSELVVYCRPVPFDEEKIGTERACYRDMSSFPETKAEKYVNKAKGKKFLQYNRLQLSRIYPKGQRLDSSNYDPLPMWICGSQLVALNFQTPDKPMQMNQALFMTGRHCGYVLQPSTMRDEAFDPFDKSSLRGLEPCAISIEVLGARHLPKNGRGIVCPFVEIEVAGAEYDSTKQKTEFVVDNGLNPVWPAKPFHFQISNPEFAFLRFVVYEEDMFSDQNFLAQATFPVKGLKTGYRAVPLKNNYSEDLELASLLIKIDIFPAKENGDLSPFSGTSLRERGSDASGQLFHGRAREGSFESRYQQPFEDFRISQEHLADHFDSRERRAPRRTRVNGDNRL
C-C chemokine receptor type 6, sequence (P51684 whole entry): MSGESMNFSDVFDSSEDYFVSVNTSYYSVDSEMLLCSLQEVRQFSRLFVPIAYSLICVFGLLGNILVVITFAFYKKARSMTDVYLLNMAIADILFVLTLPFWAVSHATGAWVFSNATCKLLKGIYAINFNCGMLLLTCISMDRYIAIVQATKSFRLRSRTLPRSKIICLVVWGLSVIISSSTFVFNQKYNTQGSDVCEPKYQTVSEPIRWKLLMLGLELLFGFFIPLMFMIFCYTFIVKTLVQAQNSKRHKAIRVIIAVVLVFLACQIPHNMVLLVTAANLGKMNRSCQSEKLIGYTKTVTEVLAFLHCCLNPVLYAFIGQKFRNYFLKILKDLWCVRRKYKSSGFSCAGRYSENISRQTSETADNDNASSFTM
Beta-galactosidase, sequence (Q8VNN2 whole entry): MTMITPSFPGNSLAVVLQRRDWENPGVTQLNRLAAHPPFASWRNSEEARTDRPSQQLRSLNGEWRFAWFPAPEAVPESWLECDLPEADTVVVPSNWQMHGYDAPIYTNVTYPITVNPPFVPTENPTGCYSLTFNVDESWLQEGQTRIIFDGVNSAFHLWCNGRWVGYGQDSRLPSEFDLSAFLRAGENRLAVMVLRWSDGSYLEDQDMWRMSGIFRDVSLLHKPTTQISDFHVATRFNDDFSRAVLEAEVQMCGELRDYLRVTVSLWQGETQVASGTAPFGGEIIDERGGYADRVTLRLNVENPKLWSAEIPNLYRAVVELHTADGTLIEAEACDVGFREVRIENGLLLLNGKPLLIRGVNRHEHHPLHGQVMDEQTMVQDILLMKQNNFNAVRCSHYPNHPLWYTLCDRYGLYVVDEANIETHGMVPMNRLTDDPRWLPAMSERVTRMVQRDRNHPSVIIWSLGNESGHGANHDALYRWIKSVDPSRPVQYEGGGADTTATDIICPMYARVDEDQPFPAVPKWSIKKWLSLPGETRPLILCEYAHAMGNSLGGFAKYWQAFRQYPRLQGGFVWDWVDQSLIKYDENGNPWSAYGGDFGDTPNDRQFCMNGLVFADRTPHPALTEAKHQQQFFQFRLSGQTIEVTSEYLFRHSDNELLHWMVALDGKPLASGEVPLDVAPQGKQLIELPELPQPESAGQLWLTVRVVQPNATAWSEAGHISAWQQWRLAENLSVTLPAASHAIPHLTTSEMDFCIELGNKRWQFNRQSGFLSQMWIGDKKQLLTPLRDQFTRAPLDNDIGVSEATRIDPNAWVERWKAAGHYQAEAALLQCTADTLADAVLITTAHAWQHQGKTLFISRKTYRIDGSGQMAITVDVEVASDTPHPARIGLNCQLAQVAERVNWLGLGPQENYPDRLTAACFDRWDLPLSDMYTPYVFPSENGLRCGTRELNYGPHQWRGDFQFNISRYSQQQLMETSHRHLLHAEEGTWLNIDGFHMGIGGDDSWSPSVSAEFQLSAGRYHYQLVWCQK
Glyceraldehyde-3-phosphate dehydrogenase, sequence (P04406 whole entry): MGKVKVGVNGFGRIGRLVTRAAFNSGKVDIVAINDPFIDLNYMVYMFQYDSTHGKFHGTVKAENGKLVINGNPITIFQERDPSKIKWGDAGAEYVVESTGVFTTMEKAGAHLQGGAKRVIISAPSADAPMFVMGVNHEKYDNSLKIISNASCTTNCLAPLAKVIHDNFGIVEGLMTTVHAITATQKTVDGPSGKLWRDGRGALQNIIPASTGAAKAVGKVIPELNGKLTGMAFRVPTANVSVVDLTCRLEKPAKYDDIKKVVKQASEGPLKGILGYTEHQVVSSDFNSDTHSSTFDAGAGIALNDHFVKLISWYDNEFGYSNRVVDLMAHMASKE
Envelope glycoprotein gp160, sequence (Q6QLK5 whole entry, the tested form may be a part): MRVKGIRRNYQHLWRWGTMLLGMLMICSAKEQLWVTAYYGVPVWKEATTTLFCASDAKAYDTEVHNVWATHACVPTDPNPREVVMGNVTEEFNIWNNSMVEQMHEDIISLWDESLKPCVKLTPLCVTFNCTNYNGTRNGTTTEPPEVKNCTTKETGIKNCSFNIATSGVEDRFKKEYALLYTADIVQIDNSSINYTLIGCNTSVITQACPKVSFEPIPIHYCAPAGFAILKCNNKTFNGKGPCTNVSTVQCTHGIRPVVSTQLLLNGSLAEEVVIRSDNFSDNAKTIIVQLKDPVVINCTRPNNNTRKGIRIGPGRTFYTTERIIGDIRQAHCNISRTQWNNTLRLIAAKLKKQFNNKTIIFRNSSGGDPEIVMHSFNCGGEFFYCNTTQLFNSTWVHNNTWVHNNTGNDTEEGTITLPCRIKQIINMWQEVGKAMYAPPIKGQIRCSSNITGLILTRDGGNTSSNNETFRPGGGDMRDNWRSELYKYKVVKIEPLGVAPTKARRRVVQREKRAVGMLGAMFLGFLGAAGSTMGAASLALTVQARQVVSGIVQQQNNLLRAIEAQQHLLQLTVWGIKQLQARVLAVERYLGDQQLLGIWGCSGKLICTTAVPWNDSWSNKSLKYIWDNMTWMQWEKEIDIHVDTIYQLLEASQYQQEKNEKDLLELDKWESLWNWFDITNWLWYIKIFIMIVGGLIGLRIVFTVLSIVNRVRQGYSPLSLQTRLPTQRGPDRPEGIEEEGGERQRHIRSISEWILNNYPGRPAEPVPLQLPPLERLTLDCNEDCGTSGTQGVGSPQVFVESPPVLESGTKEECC

## COc1cc(C=NNC(=O)c2ccccc2O)ccc1OCC(=O)Nc1ccccc1
[1]
  IC50: 2.41 µM (active)
[2]
  IC50: 52.6 µM (active)

## COC(=O)c1ccccc1-c1c2ccc(=N)cc-2oc2cc(N)ccc12
[3]
  AC50: 3.6 µM (active)
HeLa
  AC50: 34 µM (active)
[4]
  IC50: > 100 µM (inactive)
ORF 73
  AC50: < 0.015 µM (active)
Insulin-degrading enzyme [5]
  EC50: > 54.7 µM (inactive)
Insulin-degrading enzyme [6]
  EC50: > 54.7 µM (inactive)
HEK293 [7]
  IC50: > 89.2 µM (inactive)
HEK293 [8]
  EC50: 0.045 µM (active)
Paired box protein Pax-8
  AC50: 1.41 µM (active)
[9]
  CC50: 5.49 µM (active)
[10]
  IC50: 9.91 µM (active)

## FC(F)(F)C1=Nc2cccc3cccc(c23)N1
[11]
  IC50: 23.8 µM (inactive)
Beta-galactosidase
  IC50: > 66.6 µM (inactive)
[12]
  IC50: 12.1 µM (active)
[13]
  IC50: 56.6 µM (inactive)
[14]
  IC50: 102 µM (inactive)
[9]
  CC50: 11.5 µM (active)

## Cc1cc(C)c2nc3s/c(=C\c4ccc(-c5ccccc5C(=O)O)o4)c(=O)n3c2c1
[15]
  IC50: 2.4 µM (active)
[16]
  IC50: 87.1 µM (active)
[17]
  IC50: 13.8 µM (active)
[18]
  IC50: 5.82 µM (active)
[19]
  IC50: 0.68 µM (active)
[20]
  IC50: 0.805 µM (active)
[21]
  IC50: 15.6 µM (active)

## O=S(=O)(Nc1nc2ccccc2nc1Nc1ccc(N2CCOCC2)cc1)c1cc(Cl)ccc1Cl
[22]
  IC50: > 99 µM (inactive)
[23]
  IC50: > 100 µM (active)
[24]
  AC50: 4.38 µM (active)
INS1
  AC50: 5.91 µM (active)
